Assay [1] deals with MDA-MB-231 human breast cancer cells. Nature of the assay: Disruption of human breast cancer cell adhesion (phase contrast microscopy). Format: cell-based. The following applies: 100 μl of 10 mg/ml peptide stock added to 1 ml DMEM containing 5% serum; for cell morphology and attachment to the substratum: after 24 hours, cells express cadherin-11 (OB-cadherin) but not N-cadherin or E-cadherin. On the procedure: MDA-MB-231 human breast cancer cells (Lombardi Cancer Research Center, Washington, D.C.) were used in these experiments. They express cadherin-11 (also known as OB-cadherin) but not N-cadherin or E-cadherin. The cells were plated (˜50.000 cells) on glass coverslips and cultured for 24 hours in DMEM containing 5% serum. Peptides (N-Ac-IFVIDDKSG-NH2 (SEQ ID NO:85) and H-IFVIDDKSG-OH (SEQ ID NO:85)) were dissolved in sterile water (10 mg/ml), and 100 μl of each peptide stock solution was added to 1 ml of DMEM containing 5% serum. Control cells had 100 μl of water added to the medium. Cells were monitored by phase contrast microscopy. After 24 hours cells were fixed in formaldehyde. […] The amino acid sequence of this peptide is identical to that which is found in the first extracellular domain of OB-cadherin.

Assay [2] relates to Human umbilical vein endothelial cells. Nature of the assay: Disruption of endothelial cell adhesion (VE-cadherin immunolabeling). Format: cell-based. On the procedure:
Human umbilical vein endothelial cells were cultured using standard procedures (see Ichikawa et al., Amer. J. Physiol. 273 (Gastrointest. Liver Physiol. 36): […], 1997). Cells were maintained in EGM (Clonetics, San Diego, Calif.) and used at P2 for all experiments. Endothelial identity was established by Dil-LDL and factor VIII staining.
The cells were cultured on glass coverslips. Monolayers were exposed to peptides at a concentration of 75 μg/mL for 60 minutes. The cells were then fixed with 95% ethanol for 30 minutes at 4° C., followed by acetone for one minute and left to air dry at room temperature. Primary antibody for VE-cadherin (Immunotech, MarseiIles, France; 1:250) was added for one hour at 37° C. Coverslips were then washed with 0.1% milk/PBS solution three times for five minutes each. Secondary antibody (1:250), goat anti-rabbit FITC (Zymed, San Francisco, Calif.) was incubated at 37° C. for one hour. Coverslips were again washed with 0.1% milk/PBS solution three times for five minutes each. Coverslips were mounted with anti-quenching solution (1 mg/mL phenylenediamine (Sigma, St. Louis, Mo.) in 50% glycerol, 50% PBS). All photographs were taken at 400× and 1000× with exposure times of 12 seconds.

From US6569996B1, “Antibody that specifically binds to the cadherin-5 cell adhesion recognition sequence” (Adherex Technologies, Inc., priority 1998, dated 2003) come the findings set out here.

In the case of N-Ac-IFVIDDKSG-NH2, the “effect on cell adhesion” value in assay [1] (24 hours) is recorded as “interferes with cell adhesion”. In assay [1], the “cell morphology and attachment to the substratum” value was “rounded up from each other and were not well-attached to the substratum”.

N-Ac-VFRVDAETGD-NH2: in assay [2] (75 μg/mL for 60 minutes, comparison with H-VFRVDAETGD-OH), the “activity relative to similar peptide without the N- and C-terminal functional groups” value is “substantially greater”. The “effect on endothelial cell adhesion” value in assay [2] (75 μg/mL peptide for 60 minutes, monolayers on glass coverslips, VE-cadherin immunolabel, 400× and 1000×) was “disrupts endothelial cell adhesion”.

As to H-IFVIDDKSG-OH, in assay [1], the “cell morphology and attachment to the substratum” value is “remained flattened and well-attached to the substratum”.
